Where two headings read alike, the source gives them in different places.
Key:
[1] = test system: normal tissues; conditions: reported; cited from earlier work
[2] = test system: liver; conditions: normal liver; reported [26, 27, 39]; cited from earlier work
[3] = value used in Example 2 dose relation; cited from earlier work
[4] = test system: liver tumours; conditions: reported [26, 27, 39]; cited from earlier work
[5] = in vivo, cited from earlier work
[6] = test system: T98G (JCRB9041, human glioblastoma multiforme) cell lines; test: Example 3 T98G cell proliferation (Resazurin/alamarBlue) after carbon or helium ion beam irradiation with neutron capture agents; assay type: cell-based; conditions: 500 μM; for Cell proliferation: 24 h incubation prior to irradiation, up to 168 hours, vs flasks without compound; for radiosensitisation: carbon and helium ion beams
Protocol: The approach of the aforementioned embodiments was tested experimentally. A series of proof-of concept experiments were performed at Japan's HIMAC facility, to quantify the effective increase in biological dose which can be achieved in vitro. Cultured T98-G cancer cells adhered to the inner surface of T25 cell culture flasks were irradiated in carbon and helium ion beams, with and without the presence of realistic concentrations of neutron capture agents.
Three frozen vials of T98G (JCRB9041, human glioblastoma multiforme) cell lines were purchased from the National Institutes of Biomedical Innovation, Health and Nutrition, JCRB Cell Bank and used throughout the experiments.
Prior to the start of the experiments, the cells were revived and passaged twice prior to seeding 160 T25 flasks, with 5 mL of complete growth medium (DMEM+10% FBS). Flasks were incubated at 37±1° C. in an atmosphere of 5±1% CO2.
The experiments utilised ^12C and ^4He beams with 60 mm Spread Out Bragg Peak (SOBP60) spectra, and an approximate dose rate of 1 Gy/min. Cell viability was measured as a function of ion beam dose in cultured T98-G human glioblastoma cells, with and without the presence of two neutron capture agents, ^10B enriched 4-borono-L-phenylalanine (^10B-BPA) and 2,2′,2″-(10-(4-(((triphenylphosphonio)methyl)benzyl)-1,4,7,10-tetraazacyclododecane-1,4,7-triyl)triacetatogadolinium(III) trifluoroacetate (157Gd-DOTA-TPP salt complex).
A set of 300×300×10 mm^3 PMMA slabs were used in conjunction with a PMMA receptacle for holding two flasks. With this arrangement, the flasks containing the cell cultures were positioned inside a cubic 300×300×300 mm^3 PMMA phantom in a plane normal to the incident beam, at a depth corresponding to the midpoint of the SOBP60 as illustrated schematically in FIG. 13. The neutron fluence predicted via Monte Carlo simulation in Example 2 is overlayed on this figure for illustrative purposes. The ion beams were ^12C and ^4He beams with dimensions of 100×100 mm^2 (width×height) and SOBP60 energy spectra with mean energies of 290 MeV/u and 150 MeV/u, respectively (corresponding to SOBP depth ranges of approximately 8 to 14 cm in PMMA).
The irradiation campaign was conducted on four consecutive nights (carbon ion beam irradiations were conducted on the first and third nights, while helium ion beam irradiations were performed on the second and fourth night) at the HIMAC biological beamline. Forty flasks were irradiated during each night, at 80% to 90% confluence (corresponding to ˜3.75×10^5 cells per flask). Twenty-four hours prior to each irradiation, 10 flasks were incubated with 500 μM of ^10B-BPA, while a second set of 10 flasks were incubated with 500 μM of ^157Gd-DOTA-TPP salt complex. The remaining 20 flasks were used as control.
On the night of irradiation, the beam was calibrated for dose rate and dose-depth deposition and the dose-rate at the centre of the Bragg peak (corresponding to the location of the cells) was measured with an ionisation chamber. Immediately prior to irradiation, flasks were filled with a complete DMEM media (˜30 mL per flask). Flasks were irradiated in pairs, with flasks containing the neutron capture agents irradiated together, followed by corresponding control flasks (containing no neutron capture agent). Ten different dose values were used with each ion beam: 0, 0.9, 1.8, 2.3, 2.7, 3.2, 3.6, 4.1, 4.6, and 7.3 Gy for helium, and 0, 0.6, 1.3, 1.6, 1.9, 2.2, 2.5, 2.8, 3.1 and 5 Gy for carbon.
After irradiation, the medium was aseptically removed from the irradiated flasks. Cells were washed with 5 mL of DPBS which was removed and discarded. Cells were then trypsinised, detached from the flasks and resuspended in completed growth medium. Cell count and viability was recorded.
Sixteen 96-well plates were populated each night, each well containing approximately 375 cells, and each set of three wells corresponding to one flask. […]

[7] = test system: brain tumour cells; conditions: brain tumour cells / brain tumours; reported; cited from earlier work
[8] = in vivo; cited from earlier work
[9] = test system: GBM (in vitro); conditions: cited from earlier work
[10] = Example 2 Monte Carlo simulation and treatment plan, neutron capture dose enhancement in PMMA target; conditions: based on photon activated therapy studies with the same agent, corrected for expected Auger electron production
Protocol: In a further example, a similar set of simulations was conducted. Significance was arbitrarily defined as an average 10% increase in photon-equivalent dose within a tumour resulting from the administration of a non-toxic bolus of neutron-capture agent (though it is envisaged that the method of this embodiment can be used with any desired dose increase factor). To do so, the concentration of neutron capture agent required to provide a 10% increase in effective photon-equivalent dose is determined for a simple simulated therapeutic proton/heavy ion treatment plan, and this is compared with concentrations reported in the literature.
The first step is to evaluate the neutron fluence resulting from pencil-beam irradiation of a point within a target volume. […] Dose and neutron fluence distributions were recorded for each simulation; corresponding distributions at energies in between these were also estimated by interpolating between the distributions obtained at these energies. […] The primary particle fluence at each energy was then weighted such that an approximately flat biological effective dose (BED) was delivered to a defined treatment volume by the ion beam; two 50 mm cubic volumes were evaluated, one centred at a depth of 125 mm and a second centred at a depth of 165 mm. […]

[11] = test system: T98G (glioblastoma, in vitro); conditions: cited from earlier work
[12] = in vivo; cited from earlier work; remark: listed apart in the source
[13] = test system: glioblastoma cell nuclei; conditions: cited from earlier work
[14] = rat, in vivo; cited from earlier work

N[C@@H](Cc1ccc([10B](O)O)cc1)C(=O)O [BPA, ^10B-4-borono-L-phenylalanine]
CBE [1]: 0.9-1.3 | CBE, liver [2]: 4.25 | compound biological effectiveness CBE [3]: 3.8 | CBE, tumour [4]: 9.94 | Concentration (PPM) ([5]; iv): 30 ± 12 PPM | Concentration ratio (tumour to healthy tissue) ([5]; iv): 5:1 ^ | highest BPA concentration reported in the literature [5]: 125 ppm | tumour to healthy tissue concentration ratio [5]: 5:1-8:1 | Cell proliferation ([6]; carbon beam 0 to 5 Gy): substantially reduced | Cell proliferation ([6]; helium beam): substantially reduced | radiosensitisation [6]: clear and substantial radiosensitisation | CBE [7]: 3.6-3.8 | concentration ratio (tumour:normal tissue) [8]: 2.8

O=C([O-])CN1CCN(CC(=O)[O-])CCN(CC(=O)O)CCN(CC(=O)[O-])CC1.[Gd+3] [Gd-DOTA]
Concentration (ppM) [9]: 140 (1 h) ppM | accumulation within the cell nucleus [9]: neither accumulates to significant concentration

O=C([O-])CN(CCN(CC(=O)[O-])CC(=O)O)CCN(CC(=O)[O-])CC(=O)O.[Gd+3] [Gd-DTPA]
accumulation within the cell nucleus ([9]; reported [40]): neither accumulates to significant concentration

O=C([O-])C(F)(F)F.O=C([O-])CN1CCN(CC(=O)[O-])CCN(Cc2ccc(C[P+](c3ccccc3)(c3ccccc3)c3ccccc3)cc2)CCN(CC(=O)[O-])CC1.[Gd+3] [^157Gd-DOTA-TPP salt complex]
Cell proliferation ([6]; carbon beam 0 to 5 Gy): substantially reduced | Cell proliferation ([6]; helium beam): substantially reduced | radiosensitisation [6]: clear and substantial radiosensitisation | compound biological effectiveness CBE [10]: ≈ 40

[Gd] [gadolinium]
values previously published, concentration [11]: up to 3000 ppm

CC(=O)[O-].CC(=O)[O-].CCc1c(CC)c2cc3nc(cnc4cc(OCCOCCOCCOC)c(OCCOCCOCCOC)cc4ncc4nc(cc1[n-]2)C(CCCO)=C4C)C(C)=C3CCCO.O.[Gd+3] [motexafin-gadolinium]
tumour to healthy tissue uptake ratio [12]: 70:1 | prolonged retention of gadolinium in vitro [13]: up to 2 months | uptake in glioblastoma cell nuclei [13]: 90%

boron
values previously published, tumour concentration [14]: up to 231 ppm

sodium mercaptoundecahydro-closo-dodecaborate [BSH]
CBE, liver [2]: 0.94 | CBE, tumour [4]: 4.22 | tumour to healthy tissue concentration ratio [5]: 1.2-3.5 | concentration ratio (tumour:normal tissue) [8]: 0.3
